Test [1] has as its target T1, Alkaline phosphatase, tissue-nonspecific isozyme (Homo sapiens) (UniProt P05186).
T1 sequence (whole entry): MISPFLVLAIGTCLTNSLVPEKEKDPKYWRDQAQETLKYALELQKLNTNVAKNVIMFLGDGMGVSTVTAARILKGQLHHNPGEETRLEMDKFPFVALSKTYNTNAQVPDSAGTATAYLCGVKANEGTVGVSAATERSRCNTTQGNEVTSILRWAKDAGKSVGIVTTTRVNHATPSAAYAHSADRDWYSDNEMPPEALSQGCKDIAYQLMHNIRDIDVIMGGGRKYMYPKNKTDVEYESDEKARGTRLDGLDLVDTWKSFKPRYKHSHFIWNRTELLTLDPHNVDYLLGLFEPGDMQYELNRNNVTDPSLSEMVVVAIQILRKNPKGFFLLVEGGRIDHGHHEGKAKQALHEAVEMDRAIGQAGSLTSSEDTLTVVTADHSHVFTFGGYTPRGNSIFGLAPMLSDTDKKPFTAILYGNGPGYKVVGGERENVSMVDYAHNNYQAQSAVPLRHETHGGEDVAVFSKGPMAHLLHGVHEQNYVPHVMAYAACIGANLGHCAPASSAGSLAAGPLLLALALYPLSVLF
As to the kind of experiment: Inhibition of human serum containing 8% liver alkaline phosphatase using p-nitrophenyl phosphate as substrate at 8.7 x 10^-5 M up to 35 mins by spectrophotometry.

Test [2] has as its target T1, Alkaline phosphatase, tissue-nonspecific isozyme (Homo sapiens). As to the kind of experiment: Inhibition of human serum containing 14% bone alkaline phosphatase using p-nitrophenyl phosphate as substrate at 8.7 x 10^-5 M up to 35 mins by spectrophotometry.
Test [3] deals with T2, Alkaline phosphatase, tissue-nonspecific isozyme (Bos taurus) (UniProt P09487).
T2 sequence (whole entry): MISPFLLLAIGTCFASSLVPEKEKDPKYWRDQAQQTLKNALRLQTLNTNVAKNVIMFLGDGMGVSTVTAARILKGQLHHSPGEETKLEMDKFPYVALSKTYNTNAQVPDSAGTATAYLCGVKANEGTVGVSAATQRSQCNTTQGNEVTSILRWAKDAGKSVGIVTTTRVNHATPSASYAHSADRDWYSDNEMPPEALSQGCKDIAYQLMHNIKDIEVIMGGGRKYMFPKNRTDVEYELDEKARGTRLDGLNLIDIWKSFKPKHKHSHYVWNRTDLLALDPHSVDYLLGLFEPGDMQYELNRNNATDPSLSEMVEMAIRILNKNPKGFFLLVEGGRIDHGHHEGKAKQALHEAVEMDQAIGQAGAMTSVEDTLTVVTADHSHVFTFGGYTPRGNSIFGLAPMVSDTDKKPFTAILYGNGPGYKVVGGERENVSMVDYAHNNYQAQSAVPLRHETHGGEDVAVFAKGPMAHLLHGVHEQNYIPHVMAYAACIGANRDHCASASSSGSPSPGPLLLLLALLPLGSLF
As to the kind of experiment: Inhibition of bovine liver alkaline phosphatase using p-nitrophenyl phosphate as substrate at 8.7 x 10^-5 M up to 35 mins by spectrophotometry.

The target in test [4] is T1, Alkaline phosphatase, tissue-nonspecific isozyme (Homo sapiens). Description: Inhibition of human serum containing 64% liver alkaline phosphatase using p-nitrophenyl phosphate as substrate at 8.7 x 10^-5 M up to 35 mins by spectrophotometry.
The target in test [5] is Intestinal-type alkaline phosphatase (Homo sapiens) (UniProt P09923). Description: Inhibition of human serum containing 26% intestine alkaline phosphatase using p-nitrophenyl phosphate as substrate at 8.7 x 10^-5 M up to 35 mins by spectrophotometry.
In test [6] the target is Intestinal-type alkaline phosphatase (Bos taurus) (UniProt P19111). As to the kind of experiment: Inhibition of calf intestine alkaline phosphatase using p-nitrophenyl phosphate as substrate at 8.7 x 10^-5 M up to 35 mins by spectrophotometry.
Test [7] deals with T1, Alkaline phosphatase, tissue-nonspecific isozyme (Homo sapiens). Description: Inhibition of human serum containing 40% bone alkaline phosphatase using p-nitrophenyl phosphate as substrate at 8.7 x 10^-5 M up to 35 mins by spectrophotometry.
Test [8] shares this target. As to the kind of experiment: Inhibition of human serum containing 92% liver alkaline phosphatase using p-nitrophenyl phosphate as substrate at 8.7 x 10^-5 M up to 35 mins by spectrophotometry.
The species named for another test is Bos taurus. Description: Inhibition of bovine placenta alkaline phosphatase using p-nitrophenyl phosphate as substrate at 8.7 x 10^-5 M up to 35 mins by spectrophotometry.
In test [9] the target is Alkaline phosphatase, placental type (Homo sapiens) (UniProt P05187). Description: Inhibition of human placenta alkaline phosphatase using p-nitrophenyl phosphate as substrate at 8.7 x 10^-5 M up to 35 mins by spectrophotometry.
For test [10], the target named is T1, Alkaline phosphatase, tissue-nonspecific isozyme (Homo sapiens). Description: Inhibition of human serum containing 86% liver alkaline phosphatase using p-nitrophenyl phosphate as substrate at 8.7 x 10^-5 M up to 35 mins by spectrophotometry.
The target is the same in test [11]. Description: Inhibition of human serum containing 60% liver alkaline phosphatase using p-nitrophenyl phosphate as substrate at 8.7 x 10^-5 M up to 35 mins by spectrophotometry.
The target is the same in test [12]. As to the kind of experiment: Inhibition of human serum containing 10% bone alkaline phosphatase using p-nitrophenyl phosphate as substrate at 8.7 x 10^-5 M up to 35 mins by spectrophotometry.

Calls of active or inactive are those of the source. The rule behind the calls is not given here.

Chain of Alkaline phosphatase, placental type (Homo sapiens) (P05187 whole entry): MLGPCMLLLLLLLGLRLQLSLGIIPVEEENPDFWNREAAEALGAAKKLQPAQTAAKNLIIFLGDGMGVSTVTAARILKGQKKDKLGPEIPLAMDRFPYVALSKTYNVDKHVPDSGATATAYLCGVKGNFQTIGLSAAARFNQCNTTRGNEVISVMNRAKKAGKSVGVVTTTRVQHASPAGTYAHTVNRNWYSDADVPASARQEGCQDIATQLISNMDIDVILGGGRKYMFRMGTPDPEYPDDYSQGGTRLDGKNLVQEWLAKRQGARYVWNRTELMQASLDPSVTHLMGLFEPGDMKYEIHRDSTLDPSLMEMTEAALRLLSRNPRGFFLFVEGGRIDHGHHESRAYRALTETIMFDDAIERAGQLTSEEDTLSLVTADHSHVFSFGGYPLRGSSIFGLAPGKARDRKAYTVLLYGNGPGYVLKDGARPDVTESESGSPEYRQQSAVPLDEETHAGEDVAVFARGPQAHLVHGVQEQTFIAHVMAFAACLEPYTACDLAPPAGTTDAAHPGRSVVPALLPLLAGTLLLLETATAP
Chain of Intestinal-type alkaline phosphatase (Bos taurus) (P19111 20-506 limits assumed): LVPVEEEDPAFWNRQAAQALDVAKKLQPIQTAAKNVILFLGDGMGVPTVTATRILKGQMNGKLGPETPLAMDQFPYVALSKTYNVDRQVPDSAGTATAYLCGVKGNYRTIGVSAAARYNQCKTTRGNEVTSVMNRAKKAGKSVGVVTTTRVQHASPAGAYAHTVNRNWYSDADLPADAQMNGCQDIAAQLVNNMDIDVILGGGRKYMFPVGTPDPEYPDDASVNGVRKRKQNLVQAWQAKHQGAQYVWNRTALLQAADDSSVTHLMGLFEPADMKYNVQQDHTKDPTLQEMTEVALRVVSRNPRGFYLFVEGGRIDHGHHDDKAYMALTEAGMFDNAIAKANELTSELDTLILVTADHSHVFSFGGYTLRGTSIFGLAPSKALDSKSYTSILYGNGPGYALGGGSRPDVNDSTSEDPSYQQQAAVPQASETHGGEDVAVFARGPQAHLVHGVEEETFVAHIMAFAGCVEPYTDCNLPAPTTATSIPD
Chain of Intestinal-type alkaline phosphatase (Homo sapiens) (P09923 20-503 limits assumed): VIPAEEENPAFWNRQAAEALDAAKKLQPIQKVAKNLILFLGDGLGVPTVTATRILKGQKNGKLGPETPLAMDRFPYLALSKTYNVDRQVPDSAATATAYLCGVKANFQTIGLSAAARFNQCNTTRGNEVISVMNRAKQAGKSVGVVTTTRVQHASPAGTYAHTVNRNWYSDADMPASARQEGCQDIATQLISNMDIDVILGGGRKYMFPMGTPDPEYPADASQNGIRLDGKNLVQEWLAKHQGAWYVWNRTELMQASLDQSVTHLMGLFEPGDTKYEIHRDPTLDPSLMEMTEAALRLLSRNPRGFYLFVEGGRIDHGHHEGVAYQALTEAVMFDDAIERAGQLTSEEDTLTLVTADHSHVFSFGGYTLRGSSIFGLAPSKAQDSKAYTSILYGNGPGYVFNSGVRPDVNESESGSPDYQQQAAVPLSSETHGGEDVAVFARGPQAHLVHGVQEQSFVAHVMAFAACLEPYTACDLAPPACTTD

Regarding `c1ccc([C@@H]2CN3CC[Se]C3=N2)cc1`, the inhibition result in test [1], in [2], in [3], in test [4], in test [5] and in test [6] was “inactive” each time. Moreover, the inhibition entry (in test [7]; in test [8]; in the test filed under Bos taurus; in test [9]; in test [10]; in [11]) was “inactive” throughout. For the same compound, the inhibition (commonly the relative decrease from the control value, in per cent) in [12] is “inactive”.

Regarding `c1ccc([C@H]2CN3CC[Se]C3=N2)cc1`, the inhibition turned out to be 80% in test [1]; 63% in test [2]; 76% in [3]; 70% in test [4]; 70% in test [5]; 10% in [6]. Also, the inhibition is 78% in test [7]; 80% in test [8]; 78% in the test filed under Bos taurus; 0% in test [9]; 63% in [10]; 78% in test [11]. The inhibition in test [12] was found to be 70%.

On to `c1ccc([C@@H]2CN3CCSC3=N2)cc1` (stereo in doubt; (+)), for which the inhibition entry in test [1], in [2], in test [3], in test [4], in [5] and in [6] was “inactive” each time. Moreover, the inhibition entry (in test [7]; in [8]; in the test listed under Bos taurus; in test [9]; in [10]; in [11]) was “inactive” in each case. Besides, in test [12], the inhibition entry was “inactive”.

For `c1ccc([C@@H]2CN3CCSC3=N2)cc1` (stereo in doubt; (-)), the inhibition worked out at 76% in test [1]; 56% in test [2]; 67% in [3]; 65% in test [4]; 65% in test [5]; 10% in test [6]. For the same compound, the inhibition was 71% in test [7]; 76% in test [8]; 75% in the test filed under Bos taurus; 0% in [9]; 56% in test [10]; 71% in test [11]. In addition, the inhibition in [12] is 65%.
